Assay results taken from patent US4908138A (priority 1987, dated 1990).

Assays:
[1] = Inhibition of conversion of calcium hydrogen phosphate into hydroxyl apatite (protons released); conditions: protons released in a calcium phosphate solution supersaturated at 60° C.
Procedure: A crucial step in the formation of tartar is the conversion of calcium hydrogen phosphate into hydroxyl apatite. […] To this end, the degree of inhibition of this conversion was measured by determining the protons released in a calcium phosphate solution supersaturated at 60° C. in accordance with the following equation: […]

[2] = Reduction of the solubility of synthetic apatite after treatment; conditions: pH 5, consumption of lactic acid; comparison with untreated apatite
Procedure: The hydroxyacetonitrile diphosphonic acid of the invention effectively reduces the solubility of apatite by absorbing it on the tartar surface. To determine this property, the solubility of synthetic apatite after treatment with the hydroxyacetonitrile diphosphonic acid is determined by comparison with untreated apatite. To this end, a suspension of apatite is kept at pH 5 by neutralizing the hydroxyl ions passing into solution with lactic acid and determining the consumption of acid required for this purpose.

[3] = Hampshire test (calcium complexing power); format: physicochemical; conditions: pH 11; titrated with 0.2 molar calcium chloride until it remained cloudy; used as tetrasodium salt, converted for the pure diphosphonic acid
Procedure: The calcium complexing power was determined by the Hampshire test in which the hydroxyacetonitrile diphosphonic acid, to which Na2 CO3 has been added, was titrated with a 0.2 molar calcium chloride solution at pH 11 until it remained cloudy. Hydroxyacetonitrile diphosphonic acid was used in the form of its tetrasodium salt and the measured values obtained were converted for the pure diphosphonic acid.

Row | Compound | degree of inhibition of conversion of calcium hydrogen phosphate into hydroxyl apatite [1] [%] | Reduction of the solubility of apatite [2] [%] | calcium complexing power [3] [mg CaCO3 /g acid]
1 | O=P(O)(O)C(O)P(=O)(O)O [Hydroxymethane diphosphonic acid] | 81 |  | 
2 | CC(O)(P(=O)(O)O)P(=O)(O)O |  | 53 | 
3 | N#CC(O)(P(=O)(O)O)P(=O)(O)O [Hydroxyacetonitrile diphosphonic acid, hydroxyacetonitrile diphosphonic acid] | 91 | 65 | 520
4 | O=P(O)(O)C(O)P(=O)(O)O [drawing 8] |  |  | 130
